Values quoted from earlier work as cited in patent US20050118594A1, “Enzymes” (priority 2001, published 2005).

[1] = mild hypertriglyceridemia (e.g., triglycerides <400 mg/dl)

Structure (SMILES)	lowering of VLDL levels (second generation agents, compared with gemfibrozil)	decrease in triglyceride levels [1] [%]	increase in HDL cholesterol concentrations [1]	change in LDL cholesterol levels (mild hypertriglyceridemia, particularly in subjects with familial combined hyperlipidemia)	decrease in LDL levels (patients with heterozygous familial hypercholesterolemia) [%]
CC(C)(Oc1ccc(C2CC2(Cl)Cl)cc1)C(=O)O (centres unmarked) [ciprofibrate]	to a degree similar to that produced by gemfibrozil	–	–	–	–
Cc1ccc(C)c(OCCCC(C)(C)C(=O)O)c1 [gemfibrozil]	–	≥ 50	15-25%	either no change or an increase	10
